From PMC8500837, “The tertiary structure of the human Xkr8–Basigin complex that scrambles phospholipids at plasma membranes” (Nature Structural & Molecular Biology, 2021)
Substitutions are numbered along the chain they refer to. Structures can show the parent of a compound that is named as a salt.

How the values were obtained:
[1] = target: T1, mXkr8 (mXkr8-GFP; mXkr8–BSG complex) (Mus musculus, UniProt Q8C0T0); experiment: flow cytometry of NBD-SM internalization (BSA back-extraction) in Ba/F3 transformants; assay type: cell-based; details: 0.5 µM NBD-SM, 4 °C or 20 °C, labelled compound; lipid scrambling outer to inner leaflet
T1 construct: gene Xkr8; full length, C-terminal GFP tag, stably expressed in TMEM16F-/- Xkr8-/- mouse Ba/F3 cells; endogenous Basigin (or Neuroplastin) as partner; with Basigin
T1 sequence (Q8C0T0 1-401): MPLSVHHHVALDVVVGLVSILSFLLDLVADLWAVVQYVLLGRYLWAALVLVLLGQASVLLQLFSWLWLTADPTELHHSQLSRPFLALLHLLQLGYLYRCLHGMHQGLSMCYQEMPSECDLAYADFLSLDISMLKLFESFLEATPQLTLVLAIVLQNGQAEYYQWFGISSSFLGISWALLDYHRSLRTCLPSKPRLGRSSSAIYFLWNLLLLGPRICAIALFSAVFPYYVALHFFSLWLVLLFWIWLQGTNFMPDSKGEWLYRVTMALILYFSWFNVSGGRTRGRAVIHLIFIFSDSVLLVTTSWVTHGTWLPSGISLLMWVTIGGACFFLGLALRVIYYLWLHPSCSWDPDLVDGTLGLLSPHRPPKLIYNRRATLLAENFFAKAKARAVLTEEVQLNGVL
T1 sequence (P18572 22-389 partner): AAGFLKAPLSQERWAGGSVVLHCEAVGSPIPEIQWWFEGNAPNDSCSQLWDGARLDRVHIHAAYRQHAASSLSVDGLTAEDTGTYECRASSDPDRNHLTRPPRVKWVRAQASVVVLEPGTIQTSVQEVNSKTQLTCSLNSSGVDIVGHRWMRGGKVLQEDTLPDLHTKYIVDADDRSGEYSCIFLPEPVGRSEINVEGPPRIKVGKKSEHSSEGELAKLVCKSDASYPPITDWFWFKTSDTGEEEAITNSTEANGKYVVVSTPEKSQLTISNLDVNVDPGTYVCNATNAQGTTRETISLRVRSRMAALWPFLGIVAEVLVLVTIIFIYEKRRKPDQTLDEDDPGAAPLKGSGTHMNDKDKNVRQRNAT

[2] = target: T2, mXkr8 (mXkr8-GFP; mXkr8–BSG complex) (Mus musculus, UniProt Q8C0T0, W45A); experiment: as above; assay type: cell-based; details: 0.5 µM NBD-SM, 20 °C, labelled compound; constitutively active mutant
T2 construct: gene Xkr8; full length, C-terminal GFP tag, stably expressed in TMEM16F-/- Xkr8-/- mouse Ba/F3 cells; endogenous Basigin (or Neuroplastin) as partner; with Basigin
T2 sequence (Q8C0T0 1-401 W45A): T1 sequence (Q8C0T0 1-401) with W45A
T2 sequence (P18572 22-389 partner): T1 sequence (P18572 22-389 partner)

CCCCCCCCCCCCC/C=C/[C@@H](O)[C@H](COP(=O)([O-])OCC[N+](C)(C)C)NC(=O)CCCCCNc1ccc([N+](=O)[O-])c2nonc12 [NBD-SM, (7S)-4-hydroxy-7-[(1R,2E)-1-hydroxy-2-hexadecen-1-yl]-N,N,N-trimethyl-14-[(7-nitro-2,1,3-benzoxadiazol-4-yl)amino]-9-oxo-3,5-dioxa-8-aza-4-phosphatetradecan-1-aminium, 4-oxide inner salt]
flow cytometry of NBD-SM internalization (BSA back-extraction) in Ba/F3 transfor [1]: Ba/F3 cell transformants expressing wild-type Xkr8 efficiently incorporated NBD-SM | fold internalization vs wild type [2]: ~ 3 fold
